In US20160122406A1, “ANALOGS OF PITUITARY ADENYLATE CYCLASE-ACTIVATING POLYPEPTIDE (PACAP) AND METHODS FOR THEIR USE” (THE ADMINISTRATORS OF THE TULANE EDUCATIONAL FUND, priority 2013, published 2016):
Entries after “also recorded” stand apart in the source; their conditions may differ. Read-outs that look alike come from different tables or passages of the source.

How the values were obtained:
Male C57BL/6 mice = assay: Cisplatin-induced nephrotoxicity in mice; format: in vivo
Protocol: (§1) Male C57BL/6 mice were given a single intraperitoneal injection of 20 mg/kg of cisplatin. Twenty micrograms of PACAP38 were given intraperitoneally 1 hour before the injection of cisplatin and additional doses were given at 24 and 48 hours after the initial dose. The control group of mice was injected intraperitoneally with the same volume of saline as for the injections of cisplatin and PACAP38 on the same schedule. The mice were euthanized 24 hours after the final injection of PACAP38. The serum creatinine levels were determined at sacrifice with isotope dilution liquid chromatography mass spectroscopy/mass spectroscopy. Each value represents the mean plus/minus the standard error of eight determinations. ** p<0.01 compared to the group treated only with cisplatin.
as §1, with “cystatin C” for “creatinine”, “commercial ELISA kits.” for “isotope dilution liquid chromatography mass spectroscopy/mass spectroscopy.”
as §1, with “body weights of the mice” for “serum creatinine levels”, “determined 1-2 hours before the first injection of PACAP38 and” for “determined”, “sacrifice.” for “sacrifice with isotope dilution liquid chromatography mass spectroscopy/mass spectroscopy.”, “p<0.01 and * p<0.05” for “p<0.01”
as §1, with “kidney” for “serum creatinine”, “levels of TNF-α” for “levels”, “commercial ELISA kits.” for “isotope dilution liquid chromatography mass spectroscopy/mass spectroscopy.”
as §1, with “kidney” for “serum creatinine”, “levels of IFN-γ” for “levels”, “commercial ELISA kits.” for “isotope dilution liquid chromatography mass spectroscopy/mass spectroscopy.”, “p<0.01 and * p<0.05” for “p<0.01”
Male C57BL/6 mice were given a single intraperitoneal injection of 20 mg/kg of cisplatin. Twenty micrograms of PACAP38 were given intraperitoneally 1 hour before the injection of cisplatin and additional doses were given at 24 and 48 hours after the initial dose. […]

rat = conditions: 48 hours after start, cited from earlier work
[1] = rat, in vivo, iv; cited from earlier work
[2] = cisplatin 20 mg/kg i.p., 20 micrograms peptide i.p. 1 h before and 24 and 48 h after, ELISA at sacrifice

Substance: PACAP38: native human pituitary adenylate cyclase-activating polypeptide, α-amidated peptide with 38 amino acids
- cytoprotection against cisplatin-induced nephrotoxicity / kidney injury (Male C57BL/6 mice; PACAP38 compared with [Iac1]PACAP38): approximately equipotent; also recorded: potent cytoprotectants
- cisplatin-induced increase in kidney levels of interferon γ (IFN-γ) (Male C57BL/6 mice; [2]): reduction
- cisplatin-induced increase in kidney levels of monocyte chemotactic protein 1 (MCP-1, CCL2) (Male C57BL/6 mice; [2]): reduction
- cisplatin-induced increase in kidney levels of tumor necrosis factor-α (TNF-α) (Male C57BL/6 mice; [2]): reduction
- cisplatin-induced increase in serum cystatin C levels (Male C57BL/6 mice; [2]): reduction
- cisplatin-induced body weight loss (Male C57BL/6 mice; cisplatin 20 mg/kg i.p., 20 micrograms peptide i.p. 1 h before and 24 and 48 h after, at sacrifice): reduction; also recorded: significantly reversed the weight lost
- cisplatin-induced increase in serum creatinine levels (Male C57BL/6 mice; cisplatin 20 mg/kg i.p., 20 micrograms peptide i.p. 1 h before and 24 and 48 h after, at sacrifice 24 h after final injection): reduction
- kidney function of cisplatin-injected mice (Male C57BL/6 mice; summary of FIGS. 3 and 4): significantly restored kidney function
- inflammatory response in the kidney of cisplatin-injected mice (Male C57BL/6 mice; summary of FIGS. 6-8 (TNF-α, IFN-γ, MCP-1)): significantly blunted the inflammatory response
- reduction of the infarct volume (rat; continuous i.v. infusion beginning 4 hours after start of 2-h MCAO): approximately 51%
- reduction of the infarct volume (rat; continuous i.v. infusion beginning 8 hours after start of 2-h MCAO): ~22%
- reduction of the infarct volume (rat; continuous i.v. infusion beginning 12 hours after start of 2-h MCAO): ~12%

Substance: [^125I]-PACAP38: 125I-radiolabelled PACAP38 used for half-life in rats
- half-life in the bloodstream [1]: 5 to 6 min
